Measured values published in patent US20140288039A1, “LI[…] CHAIN TE[…] FOR ORAL […]” (Lipocine Inc., priority 2009, published 2014).

Tests used:
[1] = Solubility of testosterone esters in lipophilic additives (castor oil, oleic acid, glyceryl mono and di linoleate), HPLC; settings: room temperature, equilibrium, compared to the Undecanoate (T11) ester, values only in FIGS. 1-3
[2] = background statement, cited from earlier work
[3] = single daily dose oral administration

In the case of `CCCCCCCCCCCCCC(=O)O[C@H]1CC[C@H]2[C@@H]3CCC4=CC(=O)CC[C@]4(C)[C@H]3CC[C@]12C` [Testosterone Tetradecoate (T14), Testosterone Tetradecoate], the “solubility in lipophilic additives (in words)” value [1] is reported as “unexpectedly disproportionate lower solubility”.
In the case of `CCCCCCCCCCCCC(=O)O[C@H]1CC[C@H]2[C@@H]3CCC4=CC(=O)CC[C@]4(C)[C@H]3CC[C@]12C` [Testosterone Tridecoate (T13), Testosterone Tridecoate], the “solubility in lipophilic additives (in words)” value [1] is reported as “unexpectedly disproportionate lower solubility”.
For `CCCCCCCCCCC(=O)O[C@H]1CC[C@H]2[C@@H]3CCC4=CC(=O)CC[C@]4(C)[C@H]3CC[C@]12C` [Testosterone Undecanoate (T11), Testosterone Undecanoate], the “percentage of patients in a group whose serum T remains in the hypogonadal range for a large proportion of the dosing period” value [2, 3] is given as greater than 60% and the “time serum T levels remain in the hypogonadal range (<300 ng/dL) in a 24-hour period” value [2, 3] is given as greater than 7 h.
In the case of `C[C@]12CCC(=O)C=C1CC[C@@H]1[C@@H]2CC[C@@]2(C)[C@H]1CC[C@]2(C)O` [methyl testosterone], the “reported adverse effects (in words)” value ([2]; oral use) is given as “liver damage including cholestasis, peliosis hepatitis, nodular regenerative hyperplasia, and primary hepatic tumors”.
